Experiment [1] has as its system 5-HT levels in rat ventral hippocampus. Description: Microdialysis of brain serotonin levels, ventral hippocampus. The format is in vivo. As to the method:
(§1) Male albino rats of a Wistar-derived strain (285-320 g; Harlan, Zeist, The Netherlands) were used for the experiments. Upon surgery, rats were housed individually in plastic cages (35×35×40 cm), and had free access to food and water. Animals were kept on a 12 h light schedule (light on 7:00 a.m.). The experiments are concordant with the declarations of Helsinki and were approved by the animal care committee of the faculty of mathematics and natural science of the University of Groningen.
Microdialysis of brain serotonin levels was performed using home made I-shaped probes, made of polyacrylonitrile/sodium methyl sulfonate copolymer dialysis fiber (i.d. 220 μn, o.d. […], AN 69, Hospal, Italy). Preceding surgery rats were anaesthetised using isoflurane (O2/N2O; 300/300 ml/min). Lidocaine-HCl, 10% (m/v) was used for local anaesthesia. Rats were placed in a stereotaxic frame (Kopf, USA), and probes were inserted into Ventral Hippcampus (V. Hippo, L+4.8 mm, IA: +3.7 mm, V: −8.0 mm) and median prefrontal cortex (PFC, L −0.9 mm; AP: +3.5 mm relative to bregma; V: −6.0 mm (Paxinos and Watson, 1982). After insertion, probes were secured with dental cement.
Rats were allowed to recover for at least 24 h. Probes were perfused with artificial cerebrospinal fluid containing 147 mM NaCl, 3.0 mM KCl, 1.2 mM CaCl2, and 1.2 mM MgCl2, at a flow-rate of 1.5 μl/min (Harvard apparatus, South Natick, Ma., USA). 15 minute microdialysis samples were collected in HPLC vials containing 7.5 μl 0.02 M acetic acid for serotonin analysis.
Twenty-μl microdialysate samples were injected via an autoinjector (CMA/200 refrigerated microsampler, CMA, Sweden) onto a 100×2.0 mm C18 Hypersil 3 μm column (Bester, Amstelveen, the Netherlands) and separated with a mobile phase consisting of 5 g/L di-ammoniumsulfate, 500 mg/L EDTA, 50 mg/L heptane sulphonic acid, 4% methanol v/v, and 30 μl/L of triethylamine, pH 4.65 at a flow of 0.4 ml/min (Shimadzu LC-10 AD). 5-HT was detected amperometrically at a glassy carbon electrode at 500 mV vs Ag/AgCl (Antec Leyden, Leiden, The Netherlands). The detection limit was 0.5 fmol 5-HT per 20 μl sample (signal to noise ratio 3).
Four consecutive microdialysis samples with less then 20% variation were taken as control and set at 100%. Data are presented as percentages of control level (mean±S.E.M.) in time. Statistical analysis was performed using Sigmastat for Windows (SPSS, Jandel Corporation). Treatments were compared versus controls using two way analysis of variance (ANOVA) for repeated measurements, followed by Student Newman Keuls test. Level of significance level was set at p<0.05.

The test system of experiment [2] is 5-HT in the raphe nuclei / forebrain. Conditions: cited from earlier work.
In experiment [3] the test system is 5-HT levels in rat prefrontal cortex. Description: Microdialysis of brain serotonin levels, prefrontal cortex. The format is in vivo. The settings on record: PFC; 2 mg/kg s.c. co-administered with citalopram 10 μmol/kg s.c.; P=0.048. As to the method: as §1
Microdialysis of brain serotonin levels was performed using home made I-shaped probes, made of polyacrylonitrile/sodium methyl sulfonate copolymer dialysis fiber (i.d. 220 μn, o.d. 0.31 μm, AN 69, Hospal, Italy). Preceding surgery rats were anaesthetised using isoflurane (O2/N2O; 300/300 ml/min). Lidocaine-HCl, 10% (m/v) was used for local anaesthesia. […]
Twenty-μl microdialysate samples were injected via an autoinjector (CMA/200 refrigerated microsampler, CMA, Sweden) onto a 100×2.0 mm C18 Hypersil 3 μm column (Bester, Amstelveen, the Netherlands) and separated with a mobile phase consisting of 5 g/L di-ammoniumsulfate, 500 mg/L EDTA, 50 mg/L heptane sulphonic acid, 4% methanol v/v, and 30 μl/L of triethylamine, pH 4.65 at a flow of 0.4 ml/min (Shimadzu LC-10 AD). 5-HT was detected amperometrically at a glassy carbon electrode at 500 mV vs Ag/AgCl (Antec Leyden, Leiden, The Netherlands). […]

Take `NCC(O)(CS(=O)(=O)O)c1ccc(Cl)cc1` (centres unmarked) [2-hydroxysaclofen]: the “effects on 5-HT levels with citalopram” value in experiment [1] (2 mg/kg s.c. simultaneous with citalopram 10 μmol/kg s.c., P=0.046) is reported as “augmented effects on 5-HT levels”.
Turning to `NCCCP(=O)(O)CC1CCCCC1` [CGP 46381], the “response on 5-HT levels with citalopram” value in experiment [1] (0.5 mg/kg co-administered with citalopram 10 μmol/kg, treatment p=0.04) is “augmented response”; in experiment [1] (2 mg/kg co-administered with citalopram 10 μmol/kg, treatment p=0.10, treatment vs. time 0.001), “augmented response”. Besides, the “effect on 5-HT levels, given alone” value in experiment [1] (10 mg/kg s.c., without citalopram) is “did not show any effect”.
As to `NCC(CP(=O)(O)O)c1ccc(Cl)cc1` (centres unmarked) [Phaclofen], the “5-HT levels compared to citalopram treatment alone” value in experiment [1] (2 mg/kg s.c. co-administered with citalopram 10 μmol/kg s.c., P=0.021, t=75 to t=135) is on record as “enhanced levels of 5-HT”; in experiment [3], “enhanced levels of 5-HT”. For the same compound, in experiment [1] (administered either centrally into the hippocampus or systemically, with citalopram), the “effects of citalopram on extracellular 5-HT levels” value is given as “significantly increase”. The “effect on basal levels of 5-HT” value in experiment [1] (local infusion (50 μM) in ventral hippocampus, P=0.26) is listed as “did not have any effect”. Besides, the “5-HT levels after systemic citalopram during local administration” value in experiment [1] (local phaclofen 50 μM, citalopram 10 μmol/kg s.c., P=0.0068, significant from t=75 to 150 min) is given as “augmented levels of 5-HT”. In addition, in experiment [2] (raphe or forebrain), the “effect on 5-HT levels when administered by itself” value is given as “devoid of effect”.
For `NCC(CC(=O)O)c1ccc(Cl)cc1` (centres unmarked) [baclofen], in experiment [2] (forebrain), the “5-HT in the forebrain” value was “reduction”. The “5-HT in the raphe” value in experiment [2] (raphe) was “decrease”.
For the compound `CN1CCc2cc3c(cc2[C@H]1[C@@H]1OC(=O)c2c1ccc1c2OCO1)OCO3` [bicuculline, (+)-Bicuculline], in experiment [1] (local administration of 50 μM in ventral hippocampus, significant from t=45 to 90 min), the “increase of serotonin levels” value is given as “about 150%”.
Consider `NCc1cc(=O)[nH]o1` [muscimol], for which the “5-HT cell activity & 5-HT release” value in experiment [2] (raphe nuclei) was “reduced”.
